Series [1] addresses T1, HIV-1 RT (Human immunodeficiency virus type 1 group M subtype B, UniProt P04585). Particulars: quinolines of the previous publication, cited from earlier work.
Series [2] relates to MOLT-3 (Acute lymphoblastic leukemia). Particulars: read-out: IC50 cytotoxicity; cited from earlier work.
In series [3] the test system is HeLa (Cervical carcinoma). To be noted: read-out: IC50 cytotoxicity; cited from earlier work.
The subject of series [4] is HL-60 (promyeloblast). To be noted: read-out: IC50 cytotoxicity; cited from earlier work.
For series [5], the system named is HepG2 (Hepatocarcinoma). To be noted: HepG2, at maximum tested concentration of 50 µg/mL.
Series [6] relates to MOLT-3 (Acute lymphoblastic leukemia). Particulars: MOLT-3, at maximum tested concentration of 50 µg/mL.
Series [7] deals with HuCCA-1 (Cholangiocarcinoma). To be noted: HuCCA-1, at maximum tested concentration of 50 µg/mL.
For series [8], the system named is A549 (Lung carcinoma). To be noted: A549, at maximum tested concentration of 50 µg/mL.
Series [9] has as its system MRC-5 (normal embryonic lung cell). To be noted: MRC-5, at maximum tested concentration of 50 µg/mL.
In series [10] the test system is MDA-MB-231 (Hormone-independent breast cancer). To be noted: MDA-MB-231, at maximum tested concentration of 50 µg/mL.
In series [11] the test system is S102 (Thai liver cancer). Particulars: S102, at maximum tested concentration of 50 µg/mL.
The subject of series [12] is HeLa (Cervical carcinoma). Particulars: HeLa, at maximum tested concentration of 50 µg/mL.
Series [13] concerns T47-D (Hormone-dependent breast cancer). Particulars: T47-D, at maximum tested concentration of 50 µg/mL.
The test system of series [14] is H69AR (Lung cancer, multidrug resistance). Particulars: H69AR, at maximum tested concentration of 50 µg/mL.
Series [15] relates to HL-60 (promyeloblast). Particulars: HL-60, at maximum tested concentration of 50 µg/mL.
The subject of series [16] is HepG2 (Hepatocarcinoma). In words: cells. Particulars: Homo sapiens, HepG2, 48 h, read-out: IC50 cytotoxic activity.
For series [17], the system named is MOLT-3 (Acute lymphoblastic leukemia). The experiment in a line: cells. Particulars: Homo sapiens, MOLT-3, 48 h, read-out: IC50 cytotoxic activity.
In series [18] the test system is HuCCA-1 (Cholangiocarcinoma). In words: cells. To be noted: Homo sapiens, HuCC-A1, 48 h, read-out: IC50 cytotoxic activity.
Series [19] relates to A549 (Lung carcinoma). In words: cells. To be noted: Homo sapiens, A549, 48 h, read-out: IC50 cytotoxic activity.
Series [20] has as its system MDA-MB-231 (Hormone-independent breast cancer). The experiment in a line: cells. To be noted: Homo sapiens, MDA-MB-231, 48 h, read-out: IC50 cytotoxic activity.
For series [21], the system named is S102 (Thai liver cancer). In words: cells. To be noted: Homo sapiens, 48 h, read-out: IC50 cytotoxic activity.
In series [22] the test system is HeLa (Cervical carcinoma). The experiment in a line: cells. To be noted: Homo sapiens, 48 h, read-out: IC50 cytotoxic activity.
Series [23] concerns T47-D (Hormone-dependent breast cancer). The experiment in a line: cells. Particulars: Homo sapiens, T47D, 48 h, read-out: IC50 cytotoxic activity.
Series [24] deals with H69AR (Lung cancer, multidrug resistance). The experiment in a line: cells. To be noted: Homo sapiens, 48 h, read-out: IC50 cytotoxic activity.
Series [25] relates to HL-60 (promyeloblast). In words: cells. Particulars: Homo sapiens, HL-60, 48 h, read-out: IC50 cytotoxic activity.
A short description of the next series: in vitro. To be noted: human, MRC-5 cells (normal embryonic lung cells).
For series [26], the target named is T1, HIV-1 RT. In words: HIV-1 RT inhibition assay. It counts as biochemical.

Several values for one entry are separate records, joined by “and”; a condition that tells them apart may be missing. Identical values can stand only once. Like-named read-outs stand apart in the source and are kept apart here.

In general, IC50 refers to the concentration that gives 50% inhibition. With `Cc1cc(C=O)cc(C)c1Oc1cc(Nc2ccc(C#N)cn2)nc2ccccc12` [4-(2’,6’-dimethyl-4’-formylphenoxy)−2-(5’’-cyanopyridin-2’’ylamino)quinoline], the “percentage inhibition against HIV-1 RT” value on HIV-1 RT [1] is 44% and 44.5%. Also, the concentration for half-maximal inhibition (IC50) on HIV-1 RT [1] (read-out: IC50 against HIV-1 RT) is 1.93 µM; in series [2] it was 12.7 µM; in series [3] it was 25.7 µM; in the series on HL-60 (promyeloblast) [4] it was 20.5 µM.

Turning to `Cc1ccnc2c1NC(=O)c1cccnc1N2C1CC1` [NVP, nevirapine, reference compound], the Percentage cytotoxicity was found to be 15% in the series with HepG2 (Hepatocarcinoma) [5]; 29% in [6]; 11% in series [7]; 18% in the series on A549 (Lung carcinoma) [8]; 1% in [9]; 9% in [10]. Besides, the Percentage cytotoxicity with S102 (Thai liver cancer) [11] is listed as 3%; in [12], 34%; in series [13] it was 14%; in [14], 8%; in the series with HL-60 (promyeloblast) [15], 3%. Further, the concentration for half-maximal inhibition (IC50) (with HepG2 (Hepatocarcinoma) [16]; in [17]; in series [18]; in the series with A549 (Lung carcinoma) [19]; in series [20]; in the series on S102 (Thai liver cancer) [21]) was above 188 µM throughout. The IC50 (in series [22]; in series [23]; in [24]; in the series on HL-60 (promyeloblast) [25]) was above 188 µM in each case. The same compound registered an IC50 at 48 h in “in vitro” above 188 µM.

Turning to `Cc1cc(/C=C/C#N)cc(C)c1Nc1ccnc(Nc2ccc(C#N)cc2)n1` [RPV, rilpivirine, reference compound], the IC50 on HIV-1 RT [26] is 0.063 µM; in [17] it was 4.3 ± 0.5 µM; in the series on A549 (Lung carcinoma) [19] it was above 137 µM. Further, the inhibition at 1 µM on HIV-1 RT [26] (read-out: Inhibitory activity (%) against HIV-1 RT) came to 97.1%. In addition, the figures for the Percentage cytotoxicity (with A549 (Lung carcinoma) [8]; in series [9]) were 42% and 14%, respectively. The compound further came in with a 50% inhibitory concentration (IC50) at 48 h in “in vitro” above 137 µM.

Source of the values: paper PMC12484987 (Scientific Reports, 2025).
